# Reference: PubChem BioAssay AID679 (PCMD, 2007)
# Calls of active or inactive are those of the source. The rule behind the calls is not given here.
# Molecular target: Coagulation factor XI (Homo sapiens) (UniProt P03951)
# Experiment: human FXIa inhibitor potency, dose response, biochemical (AID 679)
# Conditions: purified human factor XIa enzymatic activity assay
# Chain of Coagulation factor XI (Homo sapiens) (P03951 19-387 limits assumed): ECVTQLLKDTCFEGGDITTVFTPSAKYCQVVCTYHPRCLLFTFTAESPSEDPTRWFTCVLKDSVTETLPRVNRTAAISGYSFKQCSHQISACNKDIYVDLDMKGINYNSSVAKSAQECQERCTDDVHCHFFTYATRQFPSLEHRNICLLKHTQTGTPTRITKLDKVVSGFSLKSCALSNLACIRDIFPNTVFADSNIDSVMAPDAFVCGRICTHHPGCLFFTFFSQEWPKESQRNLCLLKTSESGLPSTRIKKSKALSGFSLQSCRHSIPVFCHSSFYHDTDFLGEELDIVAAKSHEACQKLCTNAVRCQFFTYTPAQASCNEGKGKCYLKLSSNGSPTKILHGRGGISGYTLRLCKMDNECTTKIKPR
# Chain of Coagulation factor XI (Homo sapiens) (P03951 388-625 limits assumed): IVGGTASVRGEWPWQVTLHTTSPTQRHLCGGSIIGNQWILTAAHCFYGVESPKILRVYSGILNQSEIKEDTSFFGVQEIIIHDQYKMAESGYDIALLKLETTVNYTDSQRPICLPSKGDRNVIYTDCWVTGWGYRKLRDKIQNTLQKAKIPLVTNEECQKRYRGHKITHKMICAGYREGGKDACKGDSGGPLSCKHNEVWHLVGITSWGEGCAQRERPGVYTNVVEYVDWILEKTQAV
row,Compound,IC50
1,COC(=O)c1ccc(NC(=O)CC2C(=O)N(c3ccc(C)cc3)C(=O)N2CC(C)C)cc1 (stereo not drawn),> 50 µM (inactive)
2,CC1=C(C(=O)OC(C)C)C(c2coc3ccccc3c2=O)C2=C(CCCC2=O)N1 (stereo not drawn),> 50 µM (inactive)
3,N#Cc1c(N)nc2c3c(sc(=N)c2c1N)NC(=O)CC3c1ccccc1Cl (stereo not drawn),> 50 µM (inactive)
